Paper PMC6199744, “Development of Chemical Proteomics for the Folateome and Analysis of the Kinetoplastid Folateome” (ACS Infectious Diseases, 2018)

Tested on: L. major lysate proteins
Test: Multitargeted bead mixture chemoproteomics, single concentration competition, proteome-wide
Type: binding

NCCOCCOCC(=O)Nc1nc2ncc(CNc3ccc(C(=O)NC(CCC(=O)O)C(=O)O)cc3)nc2c(=O)[nH]1 (stereo not shown) [compound 6]
fold change (protein LMJF.35.0420 40S RIBOSOMAL PROTEIN S3A, PUTATIVE, vehicle control = 1): 1.15 | fold change relative to vehicle control (protein LMJF.35.1220, SHORT CHAIN DEHYDROGENASE, PUTATIVE): 1.09 | fold change relative to vehicle control (protein LMJF.35.1380, MIT[…], BETA SUBUNIT, PUTATIVE): 1.08 | fold change vs vehicle control (protein LMJF.35.1830 HYPOTHETICAL PROTEIN, CONSERVED): 0.93 | fold change vs vehicle control (protein LMJF.35.3340 6-phosphogluconate dehydrogenase): 0.99 | fold change (protein LMJF.35.3700 GIM5A PROTEIN, PUTATIVE,GLYCOSOMAL MEMBRANE PROTEIN, vehicle control = 1): 0.99 | fold change vs vehicle control (protein LMJF.35.3760 60S RIBOSOMAL PROTEIN L27A/L29, PUTATIVE): 0.97 | fold change relative to vehicle control (protein LMJF.35.3840, […] 2 SUBUNIT, PUTATIVE): 1.14 | fold change vs vehicle control (protein LMJF.35.3860 T-COMPLEX PROTEIN 1, ETA SUBUNIT, PUTATIVE): 1 | fold change (protein LMJF.35.4420 MIT[…] TRANSPORTER, PUTATIVE, vehicle control = 1): 1.05 | fold change relative to vehicle control (protein LMJF.35.4880, HY[…], CONSERVED (TPR repeat, putative)): 1.34 | fold change relative to vehicle control (protein LMJF.35.5330, ISOPENTENYL-D[…]-ISOMERASE, PUTATIVE): 1.14 | fold change relative to vehicle control (protein LMJF.36.0070, STRESS-INDUCIBLE PROTEIN STI1 HOMOLOG): 1.56 | fold change (protein LMJF.36.0480 HYPOTHETICAL PROTEIN, CONSERVED, vehicle control = 1): 0.98 | fold change vs vehicle control (protein LMJF.36.0620 HYPOTHETICAL PROTEIN, CONSERVED): 0.81 | fold change vs vehicle control (protein LMJF.36.0930 40S RIBOSOMAL PROTEIN S18, PUTATIVE): 1.15 | fold change vs vehicle control (protein LMJF.36.0990 40S RIBOSOMAL PROTEIN S10, PUTATIVE): 0.99 | fold change (protein LMJF.36.1140 SHORT CHAIN 3-HYDROXYACYL-COA DEHYDROGENASE, PUTATIVE, vehicle control = 1): 0.82 | fold change relative to vehicle control (protein LMJF.36.1260, FRUCTOSE-1,6-BI[…]): 1.05 | fold change (protein LMJF.36.1340 N-ACETYLTRANSFERASE SUBUNIT NAT1, PUTATIVE, vehicle control = 1): 0.91 | fold change vs vehicle control (protein LMJF.36.1650 […] 5 SUBUNIT, PUTATIVE): 1.03 | fold change relative to vehicle control (protein LMJF.36.2380, STEROL 24-C-METHYLTRANSFERASE, PUTATIVE): 1 | fold change relative to vehicle control (protein LMJF.36.2660, DIHYDROLIPOAMIDE ACETYLTRANSFERASE PRECURSOR, PUTATIVE): 1 | fold change vs vehicle control (protein LMJF.36.2950 SUCCINYL-COA LIGASE GDP-FORMING] BETA-CHAIN, PUTATIVE): 1.06 | fold change vs vehicle control (protein LMJF.36.3210 14-3-3 PROTEIN-LIKE PROTEIN): 0.97 | fold change vs vehicle control (protein LMJF.36.3410 SHORT CHAIN DEHYDROGENASE-LIKE PROTEIN): 1.22 | fold change (protein LMJF.36.3460 HYPOTHETICAL PROTEIN, CONSERVED (NIPSNAP, putative), vehicle control = 1): 1.1 | fold change (protein LMJF.36.3580 HYPOTHETICAL PROTEIN, CONSERVED (Protein of unknown function (DUF2009), putative), vehicle control = 1): 0.92 | fold change (protein LMJF.36.3750 40S RIBOSOMAL PROTEIN S27-1, PUTATIVE, vehicle control = 1): 0.73 | fold change vs vehicle control (protein LMJF.36.5010 40S RIBOSOMAL PROTEIN SA, PUTATIVE): 1.07 | fold change vs vehicle control (protein LMJF.36.5130 HY[…], CONSERVED): 1.09 | fold change vs vehicle control (protein LMJF.36.5150 HY[…], CONSERVED): 1.01 | fold change relative to vehicle control (protein LMJF.36.5380, NADH DEHYDROGENASE, PUTATIVE): 0.94 | fold change vs vehicle control (protein LMJF.36.5390 PHOSPHORIBOSYLPYROPHOSPHATE SYNTHETASE, PUTATIVE): 0.99 | fold change vs vehicle control (protein LMJF.36.5620 ISOLEUCYL-TRNA SYNTHETASE, PUTATIVE): 1.03 | fold change (protein LMJF.36.6430 PROTEIN TRANSPORT PROTEIN SEC23-LIKE PROTEIN, vehicle control = 1): 0.83 | fold change vs vehicle control (protein LMJF.36.6760 HY[…], CONSERVED): 1.01 | fold change relative to vehicle control (protein LMJF.[…], MIT[…] BETA SUBUNIT, PUTATIVE): 0.95 | fold change relative to vehicle control (protein LMJF.[…], POLY(A) EXPORT PROTEIN, PUTATIVE): 1.14 | fold change (vs vehicle control, protein LINJ.20.0630 CYTIDINE TR[…], PUTATIVE,CTP SYNTHASE, PUTATIVE): 1.07 | fold change (vs vehicle control, protein LINJ.20.1390 COATOMER BETA SUBUNIT, PUTATIVE): 0.82 | fold change (vs vehicle control, protein LMJF.05.1140 VACUOLAR ATPASE SUBUNIT-LIKE PROTEIN): 0.91 | fold change (vs vehicle control, protein LMJF.07.1090 DELTA-5 FATTY ACID DESATURASE): 1 | fold change (vs vehicle control, protein LMJF.09.0220 HYPOTHETICAL PROTEIN, CONSERVED): 0.97 | fold change (vs vehicle control, protein LMJF.11.1030 HYPOTHETICAL PROTEIN, CONSERVED): 0.98 | fold change (vs vehicle control, protein LMJF.14.0640 FATTY ACID ELONGASE, PUTATIVE): 0.92 | fold change (vs vehicle control, protein LMJF.14.0705 FATTY ACID ELONGASE, PUTATIVE): 0.88 | fold change (vs vehicle control, protein LMJF.14.1120 KINESIN K39, PUTATIVE): 0.71 | fold change (vs vehicle control, protein LMJF.16.1610 PROHIBITIN): 1.16 | fold change (vs vehicle control, protein LMJF.17.0010 HYPOTHETICAL PROTEIN, CONSERVED): 0.97 | fold change (vs vehicle control, protein LMJF.18.1130 RAS-RELATED PROTEIN RAB-5, PUTATIVE): 0.75 | fold change (vs vehicle control, protein LMJF.19.1420 CYSTEINE PEPTIDASE A (CPA)): 0.86 | fold change (vs vehicle control, protein LMJF.21.0280 HY[…], CONSERVED): 0.84 | fold change (vs vehicle control, protein LMJF.22.1560 40S RIBOSOMAL PROTEIN L14, PUTATIVE): 0.78 | fold change (vs vehicle control, protein LMJF.23.1220 T-COMPLEX PROTEIN 1, GAMMA SUBUNIT, PUTATIVE): 1.06 | fold change (vs vehicle control, protein LMJF.24.0370 ASPARTATE AMINOTRANSFERASE, PUTATIVE): 1.14 | fold change (vs vehicle control, protein LMJF.25.1770 ENOYL-COA REDUCTASE, PUTATIVE): 1.08 | fold change (vs vehicle control, protein LMJF.26.0170 60S RIBOSOMAL PROTEIN L7, PUTATIVE): 0.82 | fold change (vs vehicle control, protein LMJF.26.1550 TRI[…] ALPHA SUBUNIT, MIT[…]-LIKE PROTEIN): 1.11 | fold change (vs vehicle control, protein LMJF.26.1610 PROLINE OXIDASE, MIT[…]-LIKE PROTEIN): 1.02 | fold change (vs vehicle control, protein LMJF.28.1950 X-PRO, DIPEPTIDYL-PEPTIDASE,SERINE PEPTIDASE, CLAN SC, FAMILY S15, PUTATIVE): 0.94 | fold change (vs vehicle control, protein LMJF.31.1070 BIOTIN/LIPOATE PROTEIN LIGASE-LIKE PROTEIN): 0.89 | fold change (vs vehicle control, protein LMJF.32.1370 HYPOTHETICAL PROTEIN, CONSERVED): 0.94 | fold change (vs vehicle control, protein LMJF.34.0490 IMPORTIN BETA-1 SUBUNIT, PUTATIVE): 0.96 | fold change (vs vehicle control, protein LMJF.34.4060 UBIQUITIN HYDROLASE, PUTATIVE,CYSTEINE PEPTIDASE, CLAN CA, FAMILY C19, PUTATIVE): 0.85 | fold change (vs vehicle control, protein LMJF.36.1600 […] 1 SUBUNIT, PUTATIVE): 0.96 | fold change (vs vehicle control, protein LMJF.[…] RIBOSOMAL PROTEIN S7, PUTATIVE): 1.2
